Experimental data: patent publication US6576620B2, “Method of identifying partial adenosine A1 receptor agonists” (CV Therapeutics, Inc., priority 1999, dated 2003)

Test system: Adenosine A1 receptor
Test: A1-agonist stimulated [35S]GTPγS binding to G proteins
Type: biochemical
Conditions: Table 1, compounds of Example 2; normalized to the full agonist CPA
Protocol: At the end of the incubation, each suspension was filtered and the retained radioactivity determined as described above.

GTPγS [%]	Molecule
79	O[C@@H]1[C@H](O)[C@@H](COC(=S)NC2CCC2)O[C@H]1n1cnc2c(NC3CCOC3)ncnc21 (stereo partly drawn) [Compound 58 of Example 2, 2-{6-[((3)oxolan-3-yl)amino]purin-9-yl}(4S,2R,3R,5R)-5{[(cyclobutylamino)thioxomethoxy]methyl}oxolane-3,4-diol]
91	CC(C)NC(=O)OC[C@H]1O[C@@H](n2cnc3c(N[C@@H]4CCOC4)ncnc32)[C@H](O)[C@@H]1O [Compound 32 of Example 2, {(5-{6-[((3R)oxolan-3-yl)amino]purin-9-yl}(3S,2R,4R,5R)-3,4-dihydroxyoxolan-2-yl)methoxy]-N-(methylethyl)carboxamide]
42	O=C(N[C@@H]1CCC[C@H]1O)OC[C@H]1O[C@@H](n2cnc3c(N[C@@H]4CCOC4)ncnc32)[C@H](O)[C@@H]1O [Compound 62 of Example 2, {(5-{6[((3R)oxolan-3-yl)amino]purin-9-yl}(3S,2R,4R,5R)-3,4-dihydroxyoxolan-2-yl)methoxy]-N-((1R,2R)-2-hydroxycyclopentyl)carboxamide]
53	COC(=O)CNC(=O)OC[C@H]1O[C@@H](n2cnc3c(N[C@@H]4CCOC4)ncnc32)[C@H](O)[C@@H]1O [Compound 43 of Example 2, Methyl 2-{[(5-{6-[((3R)oxolan-3-yl)amino]purin-9-yl}(3S, 2R,4R,5R)dihydroxyoxolane-2-yl)methoxy}carbonylamino}acetate]
93	O[C@@H]1[C@H](O)[C@@H](COC(=S)NCc2ccccc2)O[C@H]1n1cnc2c(N[C@@H]3CCOC3)ncnc21 [Compound 54 of Example 2, 2-{6-[((3R)oxolan-3-yl)amino]purin-9-yl}(4S,2R,3R,5R)-5-({[benzylamino]thioxomethoxy}methyl)oxolane-3,4-diol]
59	O=C(N[C@H]1CCC[C@@H]1O)OC[C@H]1O[C@@H](n2cnc3c(N[C@@H]4CCOC4)ncnc32)[C@H](O)[C@@H]1O [Compound 61 of Example 2]
76	N-[(5-{6-[((3R)oxolan-3-yl)amino]purin-9-yl}(3S,2R,4R,5R)-3,4-dihydroxyoxolan-2-yl)methy]cyclopentyloxycarboxamide [Compound 70 of Example 2]
88	O[C@@H]1[C@H](O)[C@@H](COC(=S)N2CCCCC2)O[C@H]1n1cnc2c(N[C@@H]3CCOC3)ncnc21 [Compound 50 of Example 2, 2-{6-[((3R)oxolan-3-yl)amino]purin-9-yl}(4S,2R,3R,5R)-5-[(piperidylthioxomethoxy)methyl]oxolane-3,4-diol]
82	O[C@@H]1[C@H](O)[C@@H](COC(=S)NC2CCCCC2)O[C@H]1n1cnc2c(N[C@@H]3CCOC3)ncnc21 [Compound 55 of Example 2, 2-{6-[((3R)oxolan-3-yl)amino]purin-9-yl}(4S,2R,3R,5R)-5-({[cyclohexylamino]thioxomethoxy}methyl)oxolane-3,4-diol]
52	CCOC(=O)[C@H]1C2C=CC(C2)[C@H]1NC(=O)OC[C@H]1O[C@@H](n2cnc3c(N[C@@H]4CCOC4)ncnc32)[C@H](O)[C@@H]1O (some centres unmarked) [Compound 35 of Example 2]
30	O=C(N[C@@H]1CCC[C@H]1OCc1ccccc1)OC[C@H]1O[C@@H](n2cnc3c(N[C@@H]4CCOC4)ncnc32)[C@H](O)[C@@H]1O [Compound 37 of Example 2, {(5-{6 [((3R)oxolan-3-yl)amino]purin-9-yl}(3S,2R,4R,5R)-3,4-dihydroxyoxolan-2-yl)methoxy]-N-[(1R,2R)-2-(phenylmethoxy)cyclopentyl]carboxamide]
95	CNC(=S)SC[C@H]1O[C@@H](n2cnc3c(N[C@@H]4CCOC4)ncnc32)[C@H](O)[C@@H]1O [Compound 74 of Example 2, 2-{6-[((3R)oxolan-3-yl)amino]purin-9-yl}(4S,5S,2R,3R)-5-{[(methylamino)thioxomethylthio]methyl}oxolane-3,4-diol]
82	O[C@@H]1[C@H](O)[C@@H](COC(=S)NC2CC2)O[C@H]1n1cnc2c(N[C@@H]3CCOC3)ncnc21 [Compound 59 of Example 2, 2-{6-[((3R)oxolan-3-yl)amino]purin-9-yl}(4S,2R,3R,5R)-5-{[(cyclopropylamino)thioxomethoxy]methyl}oxolane-3,4-diol]
−6	O=C(NC1CC1c1ccccc1)OC[C@H]1O[C@@H](n2cnc3c(N[C@@H]4CCOC4)ncnc32)[C@H](O)[C@@H]1O (some centres unmarked) [Compound 40 of Example 2]
98	COC(=S)NC[C@H]1O[C@@H](n2cnc3c(N[C@@H]4CCOC4)ncnc32)[C@H](O)[C@@H]1O [Compound 71 of Example 2]
99	O[C@@H]1[C@H](O)[C@@H](COC(=S)N[C@H]2CCC[C@@H]2O)O[C@H]1n1cnc2c(N[C@@H]3CCOC3)ncnc21 [Compound 64 of Example 2, 2-{6-[((3R)oxolan-3-yl)amino]purin-9-yl}(4S,2R,3R,5R)-5-({[((1S,2S)-2-hydroxycyclopentyl)amino]thioxomethoxy}methyl)oxolane-3,4-diol]
91	O[C@@H]1[C@H](O)[C@@H](CSC(=S)NC2CCCC2)O[C@H]1n1cnc2c(N[C@@H]3CCOC3)ncnc21 [Compound 75 of Example 2]
80	O=c1occn1C[C@H]1OC(n2cnc3c(N[C@@H]4CCOC4)ncnc32)[C@H](O)[C@@H]1O (stereo partly drawn) [Compound 80 of Example 2, 3-[(5-{6-[((3R)oxolan-3-yl)amino]purin-9-yl}(3S,2R,4R)-3,4-dihydroxyoxolan-2-yl)methyl]-1,3-oxazolin-2-one]
101	CNC(=S)NC[C@H]1O[C@@H](n2cnc3c(N[C@@H]4CCOC4)ncnc32)[C@H](O)[C@@H]1O [Compound 77 of Example 2, 2-{6-[((3R)oxolan-3-yl)amino]purin-9-yl}(4S,2R,3R,5R)-5-({[(methylamino)thioxomethyl]amino}methyl)oxolane-3,4-diol]
109	O=C(NC1CCCC1)SC[C@H]1O[C@@H](n2cnc3c(N[C@@H]4CCOC4)ncnc32)[C@H](O)[C@@H]1O [Compound 73 of Example 2, [(5-{6-[((3R)oxolan-3-yl)amino]purin-9-yl}(2S,3S,4R,5R)-3,4-dihydroxyoxolan-2-yl)methythio]-N-cyclopentylcarboxamide]
59	O=C(O)CCNC(=O)OC[C@H]1O[C@@H](n2cnc3c(N[C@@H]4CCOC4)ncnc32)[C@H](O)[C@@H]1O [Compound 67 of Example 2, 3-{[(5-{6-[((3R)oxolan-3-yl)amino]purin-9-yl}(3S,2R,4R,5R)-3,4 dihydroxyoxolan-2-yl)methoxy]carbonylamino}propanoic acid]
17	COC(=O)C1CCCC1NC(=O)OC[C@H]1O[C@@H](n2cnc3c(N[C@@H]4CCOC4)ncnc32)[C@H](O)[C@@H]1O (some centres unmarked) [Compound 34 of Example 2]
77	O[C@@H]1[C@H](O)[C@@H](COC(=S)N2CCCC2)O[C@H]1n1cnc2c(N[C@@H]3CCOC3)ncnc21 [Compound 52 of Example 2, 2-{6-[((3R)oxolan-3-yl)amino]purin-9-yl}(4S,2R,3R,5R)-5-[(pyrrolidinylthioxomethoxy)methyl]oxolane-3,4-diol]
81	O=C(NC1CCCC1C(=O)O)OC[C@H]1O[C@@H](n2cnc3c(N[C@@H]4CCOC4)ncnc32)[C@H](O)[C@@H]1O (some centres unmarked) [Compound 65 of Example 2]
47	CCOC(=O)CCNC(=O)OC[C@H]1O[C@@H](n2cnc3c(N[C@@H]4CCOC4)ncnc32)[C@H](O)[C@@H]1O [Compound 42 of Example 2, Ethyl 3-{[(5-{6-[((3R)oxolan-3-yl)amino]purin-9-yl}(3S, 2R,4R,5R)-3,4-dihydroxyoxolane-2-yl)methoxy}carbonylamino}propanoate]
95	O[C@@H]1[C@H](O)[C@@H](CNC(=S)NC2CCCC2)O[C@H]1n1cnc2c(N[C@@H]3CCOC3)ncnc21 [Compound 78 of Example 2, 2-{6-[((3R)oxolan-3-yl)amino]purin-9-yl}(4S,2R,3R,5R)-5-({[(cyclopentylamino)thioxomethyl]amino}methyl)oxolane-3,4-diol]
67	O=C(NC1CCC1)OC[C@H]1O[C@@H](n2cnc3c(N[C@@H]4CCOC4)ncnc32)[C@H](O)[C@@H]1O [Compound 39 of Example 2, [(5-{6-[((3R)oxolan-3-yl)amino}purin-9-yl}(3S,2R,4R,5R)-3,4-dihydroxyoxolan-2-yl)methoxy]-N-cyclobutylcarboxamide]
52	O[C@@H]1[C@H](O)[C@@H](COC(=S)N[C@H]2CCC[C@@H]2OCc2ccccc2)O[C@H]1n1cnc2c(N[C@@H]3CCOC3)ncnc21 [Compound 56 of Example 2, 2-{6-[((3R)oxolan-3-yl)amino]purin-9-yl}(4S,2R,3R,5R)-5-[({[(1S,2S)-2-(phenylmethoxy)cyclopentyl]amino}thioxomethoxy)methyl]oxolane-3,4-diol]

Molecule	GTPγS [%]
CCCCNC(=S)OC[C@H]1O[C@@H](n2cnc3c(N[C@@H]4CCOC4)ncnc32)[C@H](O)[C@@H]1O [Compound 48 of Example 2, 2-{6-[((3R)oxolan-3-yl)amino]purin-9-yl}(4S,2R,3R,5R)-5-{[(butylamino)thioxomethoxy]methyl}oxolane-3,4-diol]	70

Same assay, conditions: Table 3, compounds of Example 4; normalized to the full agonist CPA

GTPγS [%]	Molecule
31	O[C@@H]1[C@H](O)[C@@H](CSc2ccc(C(F)(F)F)cc2)O[C@H]1n1cnc2c(N[C@@H]3CCOC3)ncnc21 [Compound 16 of Example 4, 2-{6-[((3R)oxolan-3-yl)amino]purin-9-yl}(4S,5S,2R,3R)-5-[(4-(trifluoromethyl)phenylthio)methyl]oxolane-3,4-diol]
48	Cc1ccc(SC[C@H]2O[C@@H](n3cnc4c(N[C@@H]5CCOC5)ncnc43)[C@H](O)[C@@H]2O)cc1 [Compound 15 of Example 4, 2-{6-[((3R)oxolan-3-yl)amino]purin-9-yl}(4S,5S,2R,3R)-5-[(4-methylphenylthio)methyl]oxolane-3,4-diol]
52	COc1ccccc1SC[C@H]1O[C@@H](n2cnc3c(N[C@@H]4CCOC4)ncnc32)[C@H](O)[C@@H]1O [Compound 17 of Example 4, 2-{6-[((3R)oxolan-3-yl)amino]purin-9-yl}(4S,5S,2R,3R)-5-[(2-Methoxyphenylthio)methyl]oxolane-3,4-diol]
